pIC50: −log10 of the molar value. Entries after “also recorded” stand apart in the source; their conditions may differ.
Assays:
[1] = tested on: TS protein expression in PANC-1 cells; assay: Immunoblot analysis of TS expression in PANC-1 cells; type: cell-based; conditions: PANC-1 cells treated 72 hours (FIG. 1D)
Experimental: To prepare lysates, 0.5×10^6 PA NC-1 cells were seeded in 100 mm dishes in 10 ml DMEM High glucose and 24 hours later, 5-FU (Sigma) or 19-S were added at the specified concentrations. Cells were harvested after 72 hours and cell pellets were stored at −80° C. For GI50 determination, 3000 MIA PaCa-2 cells. […] After 72 hours, cell viability was assessed by reduction of MTS ((3-4,5-dimethylthiazol-2-yl)-5-(3-carboxymethoxyphenol)-2-(4-sulfophenyl)-2H-tetrazolium) using Cell Titer 96 R Aqueous One Solution Cell Proliferation Assay Kit (Promega), following manufacturer's recommendations. Chemiluminescent output (integration time 1000 ms) was measured on a SpectraMax M3® (Molecular devices). […]
Protein lysates were generated using RIPA buffer (Santa Cruz) for 20 minutes on ice, followed by 15 minutes centrifugation at 13,000 rpm, at 4° C. […] Protein was quantified using Bradford Assay (BioRad) following manufacturer's recommendations, standard curves were generated with bovine serum albumin (Fisher).
20 μg of total protein lysate was loaded per lane of 10% Tris Glycine Gel (Invitrogen). […] Signal was detected using West Pico Plus chemiluminescent substrate (Thermo Scientific) following manufacturer's recommendations. […] For protein level quantification relative to loading control, densitometric analysis was performed by ImageJ software.

BON cells = assay: Cell viability (MTS) assay, BON; type: cell-based; conditions: 72 hour drug incubation (FIG. 1C)
CM cells = assay: Cell viability (MTS) assay, CM; type: cell-based; conditions: 72 hour drug incubation (FIG. 1C)
[2] = target: T1, human thymidylate synthase (hTS) (Homo sapiens, UniProt P04818); assay: Tritium based TS catalytic activity assay; type: biochemical; conditions: for inhibition of TS catalytic activity, 19-S series library screen: 250 uM (FIG. 4A); for TS inhibition at decreasing drug concentrations: compared with Pem and MTX controls (FIG. 4C); for TS activity (conversion of dUMP): drug 250 μM, 10 μg/mL bacterially expressed TS protein (FIG. 1B)
T1 construct: 6xHis (N); made in house; host or cells: E. coli BL21 (DE3)
T1 sequence (P04818 whole entry): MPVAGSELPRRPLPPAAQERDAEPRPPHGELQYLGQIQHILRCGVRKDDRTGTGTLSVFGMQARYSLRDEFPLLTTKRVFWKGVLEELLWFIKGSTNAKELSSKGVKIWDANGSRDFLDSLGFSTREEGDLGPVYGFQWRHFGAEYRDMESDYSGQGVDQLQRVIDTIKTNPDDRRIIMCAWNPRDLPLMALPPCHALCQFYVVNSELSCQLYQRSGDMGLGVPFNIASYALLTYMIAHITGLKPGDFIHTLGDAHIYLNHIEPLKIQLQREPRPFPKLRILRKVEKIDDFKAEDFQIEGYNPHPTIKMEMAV
Experimental: The catalytic activity of TS was determined by measuring the release of [31] from [5-3H]dUMP (ViTrax, VT122) resulting from the conversion of dUMP to dTMP as previously described12,33. […] Reactions were performed in 50 mM KH2PO4 (Sigma Aldrich, P0662) at pH 7.2 using 2 μg of purified human TS. Reactions were performed in a final volume of 200 μL with 100 mM β-mercaptoethanol (Sigma Aldrich, M7522), 40 μM dUMP (Sigma Aldrich, D3876), 100 μM 5,10-mTHF, and the [5-3H]dUMP tracer (ViTrax, VT122) accounting for 0.06% of the final dUMP concentration in the reaction. […] Reactions were initiated by the addition of the dUMP substrate and 5,10-mTHF cofactor, then incubated at 37° C. for 30 minutes. […] Reactions were terminated by the addition of 100 μL of ice-cold 20% trichloroacetic acid (Sigma Aldrich, T6399), then excess [5-31-]dUMP was removed by the addition of 200 μL of an albumin-coated activated charcoal solution. The albumin-coated activated charcoal solution was prepared by mixing 10 g of acid-washed activated dextran coated charcoal (Sigma Aldrich, C6241) with 2.5 g of bovine albumin (Sigma Aldrich, A1933) in 100 mL of H2O. The suspension was incubated at room temperature for 30 minutes and then centrifuged for 30 minutes at 10,000×g. […] For all experiments, positive control reactions were performed with no drug representing 100% TS activity, and negative control reactions were performed with no TS enzyme or no 5,10-mTHF substrate representing 0% TS activity. All assays were performed in biological duplicate and technical duplicate. Results were analyzed using GraphPad Prism 8.

human TS = target: T2, human TS (Homo sapiens, UniProt P04818); assay: Competitive drug displacement assay (tritium TS assay); type: biochemical; conditions: TS pre-incubated with drug; for dUMP conversion with increasing 5,10-mTHF concentration (drug displacement): 5,10-mTHF up to 5×; for dUMP conversion with increasing dUMP concentration (drug displacement): dUMP up to 5×
T2 construct: 6xHis (N); made in house; host or cells: E. coli BL21 (DE3)
T2 sequence (P04818 whole entry): as above
Experimental: For these experiments the TS protein was first incubated with each drug, the reaction was then initiated by addition of 5,10-mTHF and dUMP using different concentrations of either 5,10-mTHF or dUMP to change the substrate:drug ratio. If there was competition between one of the substrates and the drug for the same binding site, increasing the substrate concentration will displace more of the pre-bound drug and shift the equilibrium towards the enzyme: substrate complex, thus allowing the conversion of dUMP to proceed (FIG. 5A).
The competitive drug displacement assay utilized the standard reaction conditions for the tritium based TS catalytic activity assay including 40 μM dUMP (Sigma Aldrich, D3876) with the [5-3H]dUMP tracer (ViTrax, VT122) accounting for 0.06% of the final dUMP concentration and 100 μM 5,10-methylene tetrahydrofolate (defined as 1× dUMP and 1×5,10-mTHF). Concentrations of total dUMP and 5,10-mTHF were then changed relative to these 1× concentrations to concisely indicate the changes in either the substrate or cofactor concentration. […] The remaining components in each 200 μL reaction were consistent in all reactions and included 2 μg of purified human TS in 50 mM KH2PO4 (Sigma Aldrich, P0662) and 100 mM β-mercaptoethanol (Sigma Aldrich, M7522).

DHFR = target: T3, DHFR (Homo sapiens, UniProt P00374); assay: Absorbance-based DHFR activity assay; type: biochemical; conditions: for DHFR inhibition at reduced inhibitor concentrations: compared with Pem and MTX controls (FIG. 4D)
T3 construct: purchased Sigma D6566
T3 sequence (P00374 1-187): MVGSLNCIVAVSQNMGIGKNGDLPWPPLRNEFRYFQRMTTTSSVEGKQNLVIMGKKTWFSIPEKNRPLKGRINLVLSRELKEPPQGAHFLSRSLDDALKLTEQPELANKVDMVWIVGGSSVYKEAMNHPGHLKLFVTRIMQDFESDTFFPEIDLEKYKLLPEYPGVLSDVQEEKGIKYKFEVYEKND
Experimental: 6 μL NADPH solution and 5 μL of dihydrofolic acid (DHFR substrate) (Sigma, D7006).

MIA PaCa-2 cells = assay: Cell viability (MTS) assay, MIA PaCa-2; type: cell-based; conditions: Homo sapiens; MIA PaCa-2, 72-hour treatment, highest concentration 350 μM (FIG. 4E)
Experimental: To prepare lysates, 0.5×10^6 PA NC-1 cells were seeded in 100 mm dishes in 10 ml DMEM High glucose and 24 hours later, 5-FU (Sigma) or 19-S were added at the specified concentrations. Cells were harvested after 72 hours and cell pellets were stored at −80° C. For GI50 determination, 3000 MIA PaCa-2 cells. […] After 72 hours, cell viability was assessed by reduction of MTS ((3-4,5-dimethylthiazol-2-yl)-5-(3-carboxymethoxyphenol)-2-(4-sulfophenyl)-2H-tetrazolium) using Cell Titer 96 R Aqueous One Solution Cell Proliferation Assay Kit (Promega), following manufacturer's recommendations. Chemiluminescent output (integration time 1000 ms) was measured on a SpectraMax M3® (Molecular devices). Data were normalized to max/minutes and plotted in GraphPad Prism for GI50 determination. Chemical synthesis details, including characterization of each compound, can be found in the supporting information document associated with this publication.

[3] = Maximum tolerated dose (MTD) study; type: in vivo
From the text: After 3 treatment cycles, animals rested (no treatment) for one more week before euthanasia. Body weight and physical status of all mice were closely monitored. Tissues were collected and fixed in alcoholic formalin to test for toxicity.

[4] = tested on: Luc-PANC-1 xenograft tumors; assay: Luc-PANC-1 subcutaneous xenograft tumor model; type: in vivo, NSG mice; conditions: 25 mg/kg oral gavage
Experimental: Luc-PANC-1 (5×106) and Luc-CM (0.5×106) cells were resuspended in 200 ul of PBS and injected subcutaneously (SQ) or intraperitonially (IP) to 6-8-week-old NSG mice respectively. Tumor bearing mice were imaged using Xenogen IVIS® Lumina Bioluminescence Imaging System (Perkin Elmer) every week after cell injection. At 4 weeks, animals were randomized based on slope of luciferase signal and treatment was initiated. […] For all animals body weight was recorded weekly and Luc-PANC-1 tumor volume was measured weekly with a caliper. For scheduled sacrifice experiments, animals were euthanized after 4 weeks of treatment. […] Harvested tumors were excised and weighted, and fixed in alcoholic formalin (67.5% Ethanol, 10% Formaldehyde 37%, 22.5% water) for pathology analysis. Tumor volume was calculated as [volume=0.52 (length×width2)].
From this stock, the exact volume needed for daily in vivo delivery was then formulated into 95% corn oil (Mazola) at 2 different concentrations: 1.25 mg/mi (formulation 1) and 3.125 mg/ml (formulation 2). To determine the volume of solution administered to the mice, 200 μl (maximum volume to be delivered in mice via IP or oral gavage) was divided by 25 g of mouse body weight. Therefore, 8 μl of formulation 1 or 2 multiplied by the weight of the mice were used to reach a dose of 10 or 25 mg/kg of body weight, respectively.
Prior to bioluminescence imaging the region where tumors were located was shaved. Mice were then anesthetized with 2.5% isoflurane in 02 then administered the D-luciferin substrate (150 mg/kg in PBS) by IP injection. Following the injection of the D-luciferin substrate mice were imaged using the Xenogen IVIS® Lumina Bioluminescence Imaging System (Perkin Elmer). The peak of luciferase photon flux was recorded 6 minutes after injection of the D-luciferin substrate. The total photon flux was analyzed and restricted to tumor ROI (region of interest) using Living Image v2.60.1 software (Imaging Systems).

Which “TS protein expression (steady-state TS levels)” value [1] does the source give for `O=c1[nH]cc(F)c(=O)[nH]1` [Compound 5-FU, 5-fluorouracil, reference compound] here?
The value was “induced TS expression”.

And the pIC50 (BON cells)?
The pIC50 was 5.15.

And the GI50 (CM cells)?
The GI50 was 14.8 µM.

Which results are given for `CCc1nc(N)nc(N)c1-c1ccc(N(C)Cc2ccc(OC)cc2)c([N+](=O)[O-])c1` [Compound 19-S5]?
inhibition of TS catalytic activity, 19-S series library screen [2]: inhibited TS activity; TS inhibition at decreasing drug concentrations ([2]; listed as 19-55): greater TS inhibition than both MTX and Pen; TS inhibition at decreasing drug concentrations ([2]; listed as 19-85): both strong TS and DHFR inhibition; dUMP conversion with increasing 5,10-mTHF concentration (drug displacement) (human TS): increased the amount of dUMP conversion; dUMP conversion with increasing dUMP concentration (drug displacement) (human TS): the amount of dUMP conversion did not increase; DHFR inhibition at reduced inhibitor concentrations (DHFR): both strong TS and DHFR inhibition; GI50 (MIA PaCa-2 cells): 0.2 to 0.84 µM

Which “inhibition of TS catalytic activity, 19-S series library screen” value [2] does the source give for `CCc1nc(N)nc(N)c1-c1ccc(N(C)Cc2ccc3c(c2)OCO3)c([N+](=O)[O-])c1` [Compound 19-S7] here?
The value was “inhibited TS activity”.

What about the “TS inhibition at decreasing drug concentrations” value [2] of the same compound?
The value was “greater TS inhibition than both MTX and Pen; also recorded: both strong TS and DHFR inhibition”.

What about the “dUMP conversion with increasing 5,10-mTHF concentration (drug displacement)” value (human TS) of the same compound?
Its value is “increased the amount of dUMP conversion”.

What about the “dUMP conversion with increasing dUMP concentration (drug displacement)” value (human TS) of the same compound?
The value was “the amount of dUMP conversion did not increase”.

And the mortality ([3]; 50 mg/kg PO, n=3 (FIG. 16B))?
The mortality was “found dead after 12th (n=1) and 15th (n=2) dose”.

What about the MTD ([3]; PO, NSG mice (FIGS. 16A-16B)) of the same compound?
The MTD was 25 mg/kg.

And the “DHFR inhibition at reduced inhibitor concentrations” value (DHFR)?
Its value is “both strong TS and DHFR inhibition”.

What about the “adverse effects / body weight” value ([4]; 4 cycles) of the same compound?
Its value is “did not show adverse effects or declines in body weight”.

What about the “tumor progression (photon flux, tumor volume, excised tumor mass)” value ([4]; 4 cycles (FIGS. 7A-7H)) of the same compound?
Its value is “inhibited tumor progression”.

What about the GI50 (MIA PaCa-2 cells) of the same compound?
Its GI50 is 0.2 to 0.84 µM.

Which “inhibition of DHFR activity, 19-S series library screen” value (DHFR; 1 μM (FIG. 4B)) does the source give for `CCc1nc(N)nc(N)c1-c1ccc(NCCOCCOCCN)c([N+](=O)[O-])c1` [Compound 19-S10] here?
The value was “exception”.

For `O=c1[nH]c(=O)n([C@@H]2O[C@H](CO)[C@@H](O)[C@H]2O)cc1F` [FUrd, 5-fluorouridine, reference compound], which “TS activity (conversion of dUMP)” value [2] is on record?
The value was “inactive”.

Which “TS activity (conversion of dUMP)” value [2] does the source give for `O=c1[nH]c(=O)n([C@H]2C[C@H](O)[C@@H](CO)O2)cc1F` [FdUrd, 5-fluoro-2′-deoxyuridine, reference compound] here?
The value was “reduced conversion of dUMP”.

And the “dUMP conversion with increasing dUMP concentration (drug displacement)” value (human TS)?
Its value is “did not show drug displacement”.

Which GI50 (MIA PaCa-2 cells) does the source give for `CN(Cc1cnc2nc(N)nc(N)c2n1)c1ccc(C(=O)N[C@@H](CCC(=O)O)C(=O)O)cc1` [MTX, methotrexate, reference compound] here?
The GI50 was greater than 350 µM.

What does the source list for `Nc1nc2[nH]cc(CCc3ccc(C(=O)N[C@@H](CCC(=O)O)C(=O)O)cc3)c2c(=O)[nH]1` [Pem, pemetrexed, reference compound]?
TS inhibition at decreasing drug concentrations [2]: greater TS inhibition than the MTX antifolate; dUMP conversion with increasing 5,10-mTHF concentration (drug displacement) (human TS): increased the dUMP conversion; dUMP conversion with increasing dUMP concentration (drug displacement) (human TS): did not increase dUMP conversion; DHFR inhibition at reduced inhibitor concentrations (DHFR): less effective against DHFR; GI50 (MIA PaCa-2 cells): > 350 µM

From patent US20260258000A1, “THYMIDYLATE SYNTHASE INHIBITORS AND USES THEREOF” (University of Florida Research Foundation, Incorporated, priority 2021, published 2026)
